Test results reported in patent US5582832A, “Compositions for topical application to skin” (priority 1995, dated 1996).

Experiments:
Assay type in all cases: cell-based, human
keratinocytes = experiment: Rate of DNA synthesis (3H-thymidine incorporation) in keratinocytes; details: for keratinocyte DNA synthesis, % of the corresponding controls (1 uM Econazole) / keratinocyte DNA synthesis, % of the corresponding controls (10 uM Econazole) / keratinocyte DNA synthesis, % of the corresponding controls (no azole): Table 5; for keratinocyte DNA synthesis, % of the corresponding controls (1 uM Econazole): 1 uM ceramide + 1 uM Econazole; for keratinocyte DNA synthesis, % of the corresponding controls (10 uM Econazole): 1 uM ceramide + 10 uM Econazole; for keratinocyte DNA synthesis, % of the corresponding controls (no azole): 1 uM ceramide
Protocol: (§1) 1. Normal human keratinocytes isolated from neonatal foreskins by trypsin treatment were grown in DME medium/10% fetal calf serum in the presence of irradiated 3T3 mouse fibroblasts for establishing dividing keratinocyte colonies. Keratinocytes were grown under the above condition until their third passage.
2. For the experiments, third passage keratinocytes were plated into a serum-free keratinocyte growth medium (KSFM; obtained from Life Technologies, Grand Island, N.Y.) containing 0.09 mM calcium. 20,000 to 30,000 cells were plated into each well of 24 well cell culture plates and grown for 5 days, until the cells reach about 80% confluence.
3. Medium was changed to fresh medium and the various test materials were added to the medium from an ethanolic stock solution (10:00 AM). The final ethanol concentration in the cultures was kept below 0.2%. Control cultures received no tested material but were dosed with 0.2% ethanol. Each compound or combination was tested in three separate wells. By 4:00 PM, 1 uCi of ^3 H-thymidine (Amersham Corp., Sp activity 40 Ci/mmol) was added to the 1 ml medium in each well. The cells were incubated overnight and […] (10:00 AM next day) the amount of ^3 -thymidine associated with the cellular DNA of keratinocytes was assessed as described below.
4. The medium was aspirated, and the wells washed with 1 ml phosphate-buffered saline. The DNA and proteins of the cells in the plate were then precipitated by adding 1 ml of ice-cold 10% trichloroacetic acid (TCA). The plates were left on ice for 30 minutes to complete the precipitation process. TCA was then aspirated and each well was then washed four times with 5% TCA. The plates were then dried on a filter pad and the cells in the wells were dissolved in 0.5 ml of 0.1N sodium hydroxide. The sodium hydroxide was then neutralized using 0.1N hydrochloric acid and the solution (1 ml total volume) was then transferred to a scintillation vial. 50 μl samples from each vial were used for protein assay using BCA protein assay reagent obtained from Pierce Chemical Company. 8 ml of a scintillation fluid (Ecolume) was added to the rest of the solution in the vial, and the vials were counted in a scintillation counter to determine the amount of radioactivity in each vial. The DNA synthesis rate was then calculated as cpm ^3 H thymidine incorporated into total cellular DNA/microgram of cell protein for each individual well. Mean and standard deviation for each group was also calculated.
Rationale for using 1,25D is that in in vivo situation, these azoles will inhibit the endogenous degradation of the 1,25D which is obtained from the circulation. Azoles will act in keratinocytes to increase the endogenous levels of 1,25D within cells. Keratinocytes (70% confluent) were incubated with 10 uM of the different azoles in the presence of 100 nM 1,25D. One of the groups was treated with 5 uM of ceramide of Formula A in the medium. After four hours, all the wells were treated with 1 uCi ^3 H-thymidine and the rate of DNA synthesis was estimated as described in the methods.
Keratinocytes were incubated with 1 or 10 uM of Econazole in the presence of 1 uM of the different ceramide analogues and 100 nM 1,25D in the medium. Thymidine incorporation was measured with an overnight incubation as described in Example 2.

[1] = system: 25D degradation (vitamin D metabolism in keratinocytes); experiment: Vitamin D metabolism in keratinocytes: 25D degradation; details: for % degradation (25D): Table 1
Protocol: as §1
(§2) 80% confluent keratinocytes were incubated with 0.05 uCi of ^3 H-25D or ^3 H-1,25D for two hours or 20 hours in the presence of 1-100 uM of the different compounds. Reaction was stopped by addition of methanol and the cells and medium were extracted using chloroform:methanol. The chloroform layer was separated, dried and spotted on TLC plates. […] The amount of radioactivity in each lane was quantitated using the BioScan radioactive plate reader. The amount of radioactivity remaining in the peak area of 25D and 1,25D were calculated as % of control. The % remaining was subtracted from 100 to get the % degradation of the metabolites.
(§3) The data are expressed as mean of % degradation of 25D or 1,25D. The range is also given in parenthesis.

[2] = system: 1,25D degradation (vitamin D metabolism in keratinocytes); experiment: Vitamin D metabolism in keratinocytes: 1,25D degradation; details: for % degradation (1,25D): Table 1
Protocol: as §1, §2, §3

[3] = 100 nM 1,25D, * = synergistic effect
[4] = Tables 5A-5I, 100 nM 1,25D, Econazole 10 uM, ceramide analogue 1 uM
[5] = Tables 5A-5I, 100 nM 1,25D, Econazole 10 uM, ceramide analogue 1 uM, mean + SD
[6] = Table 2, 1 uM, 20 hour incubation, mean of duplicate (range)

SMILES	keratinocyte DNA synthesis, % of the corresponding controls (1 uM Econazole) (keratinocytes; 100 nM 1,25D)	keratinocyte DNA synthesis, % of the corresponding controls (10 uM Econazole) (keratinocytes; [3])	keratinocyte DNA synthesis, % of the corresponding controls (no azole) (keratinocytes; [3]) [%]	DNA synthesis (% control) (keratinocytes; [4])	DNA synthesis (keratinocytes; [5])	% degradation (25D) ([1]; 100 uM compound) [%]	% degradation (1,25D) ([2]; 100 uM compound) [%]	also measured
CCCCCCCCCCCCCCCCN(CC(O)CO)C(C)=O (stereo not drawn) [Formula F]	84.3 + 1.96%	40.9 + 9.0%	90.3 ± 21.4	90.3	27051 + 7858 cpm 3H thymidine incorporated	–	–	–
CCCCCCCCCCCCCCCCN(CC(O)CO)C(=O)CCCCC (stereo not drawn) [Formula G]	84.8 + 12.7%	28.2 + 15.2%	102.8 ± 14.4	102.8	30794 + 5311 cpm 3H thymidine incorporated	–	–	–
CCCCCCCCCCCCN(CC(O)CO)C(=O)C(O)CCCCCC (stereo not drawn) [Formula K]	82.9 + 16.9%	38.7 + 14.8%	100.2 ± 9.6	80	23958 + 5660 cpm 3H thymidine incorporated	–	–	–
N[C@@H](Cc1c[nH]c2ccccc12)C(=O)O [L-Tryptophan]	–	–	–	–	–	83	100	–
Clc1ccc(COC(Cn2ccnc2)c2ccc(Cl)cc2Cl)c(Cl)c1 (stereo not drawn) [Miconazole]	–	–	–	–	–	–	–	blocking of 25D degradation (in words) ([1]; 1 uM, 20 hours (Table 2)): effective with 25D; % degradation (25D) ([1]; 10 uM compound): 54%; 25D degradation (%) [1, 6]: 38.7 (35.4-42.0) %; blocking of 1,25D degradation (in words) ([2]; 1 uM, 20 hours (Table 2)): did not block 1,25D degradation; % degradation (1,25D) ([2]; 10 uM compound): 70%; 1,25D degradation (%) [2, 6]: 75.8 (69.9-81.8) %; DNA synthesis, % of control (100 nM 1,25D + 5 uM ceramide Formula A) (keratinocytes; Table 4, 10 uM azole (or no azole) + 100 nM 1,25D + 5 uM ceramide Formula A, mean + SD, * = synergistic effect, 1440 min): 17.5 + 3.3 % of control; DNA synthesis, % of control (azole, only 100 nM 1,25D) (keratinocytes; Table 4, 10 uM azole, 100 nM 1,25D, no ceramide, mean + SD, 1440 min): 42.8 + 1.8 % of control; DNA synthesis (keratinocytes; Tables 4A-4F, 100 nM 1,25D, azole 10 uM, ceramide Formula A 5 uM, mean + SD): 62806 + 2649 cpm 3H thymidine incorporated; DNA synthesis (% control) (keratinocytes; Tables 4A-4F, 100 nM 1,25D, azole 10 uM, 1440 min): 42.8 % control
Cc1ncc(C[n+]2csc(CCO)c2C)c(N)n1 [Thiamine]	–	–	–	–	–	85	77	–
Nc1nc2ncc(CNc3ccc(C(=O)N[C@@H](CCC(=O)O)C(=O)O)cc3)nc2c(=O)[nH]1 [folic acid]	–	–	–	–	–	78	95	–
CC1=CC(=O)c2ccccc2C1=O [menadione (vitamin K1), menadione]	–	–	–	–	–	89	93	–
